The source of these data is patent US11933780B2, “System and method for assessing an effect on cellular units in an organism” (Functional Fluidics Inc., priority 2022, dated 2024).

The test system of the test is erythrocytes. In words: percentage of sickling of erythrocytes over time during deoxygenation by the PCA/PCD system. It counts as cell-based. An excerpt: FIG. 5 is a graph illustrating a percentage of sickled erythrocytes over time for one sample that is exposed to a drug and one that is not.
Referring again to FIG. 3, the method may continue with the step 60 of deoxygenating the supporting medium in the aliquot of sample A and, in certain embodiments, the supporting medium in the aliquot of sample B to induce at least one of a predetermined amount of hypoxia and a predetermined rate of oxygen consumption in each of the supporting mediums. Deoxygenation of the supporting mediums in the aliquots of samples A and B may occur at the same or different times. Deoxygenation may be performed through enzymatic catalysis using enzymatic oxygen scavengers/scrubbers such as glucose oxidase or pyranose oxidase. In a preferred embodiment, deoxygenation is performed through enzymatic catalysis using a reaction substrate comprising protocatechuic acid (PCA) and a reaction enzyme comprising […] (PCD). PCD catalyzes the conversion of PCA and oxygen in the supporting medium in a 1:1 stoichiometry into β-carboxy-cis, cis-muconic acid (CMA). The use of PCA/PCD has a number of advantages relative to other enzymatic catalysis methods and other methods of deoxygenation. […] The use of PCA/PCD can achieve greater levels of hypoxia in the samples relative to some other methods. The use of PCA/PCD can also achieve specific levels of hypoxia as opposed to proceeding to complete hypoxia as in other methods thereby allowing simulation of more specific conditions (e.g., for a particular organ or particular level of hypoxia). Most importantly, the use of PCA/PCD allows accurate control of the rate of oxygen consumption in both the supporting medium and, as a result, the rate of deoxygenation of Hb in embodiments where the cellular unit comprises erythrocytes or extracellular Hb. Conventional methods of deoxygenation assume equilibrium or quasi-equilibrium conditions in which, for example, the rate of Hb deoxygenation occurs […] than the rate of oxygen consumption in the supporting medium. […]

Setting [1] is: FIG. 5, curve 76 vs curve 78, PCA/PCD deoxygenation at the same rate of oxygen consumption.

For `CC(C)n1nccc1-c1ncccc1COc1cccc(O)c1C=O` [voxelotor], the “percentage of sickling of erythrocytes over time” value (FIG. 5, curve 76 (voxelotor) vs curve 78, same erythrocyte-containing sample deoxygenated by PCA/PCD at the same rate of oxygen consumption) is recorded as “reduction in sickling”. Besides, under setting [1], the delay in sickling entry was “longer delay in sickling” and the erythrocyte sickling rate result was “slower erythrocyte sickling rate”.
